Measured values: article PMC10449848, “Structural basis of lipid-droplet localization of 17-beta-hydroxysteroid dehydrogenase 13” (Nature Communications, 2023)
Several values for one entry are separate records, joined by “and”; a condition that tells them apart may be missing. Equal values may be shown once.

Legend:
[1] = molecular target: T1, human HSD17B11 (Homo sapiens, UniProt Q8NBQ5); test: Thermal shift assay (static light scattering, Tagg), human HSD17B11; type: binding; details: Fig. 6d, 500 μM NAD+
T1 construct: human HSD17B11 (residues 2-300, NP_057329.3); 10x His (N); TEV protease site (N); made in house; host or cells: Sf9 (baculovirus)
T1 sequence (Q8NBQ5 2-300): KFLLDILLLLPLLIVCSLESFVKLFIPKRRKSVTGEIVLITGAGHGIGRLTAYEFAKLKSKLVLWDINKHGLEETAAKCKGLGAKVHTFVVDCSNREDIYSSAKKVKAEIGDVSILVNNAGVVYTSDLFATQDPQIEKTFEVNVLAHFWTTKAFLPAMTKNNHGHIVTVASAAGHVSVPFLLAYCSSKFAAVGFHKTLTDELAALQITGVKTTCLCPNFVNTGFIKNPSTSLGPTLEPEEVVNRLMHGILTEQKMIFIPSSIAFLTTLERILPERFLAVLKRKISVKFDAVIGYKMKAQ
Excerpt: Because of the low enzymatic activities of dog wild-type HSD17B13 (Fig. 6a) and HSD17B11 with β-estradiol, it was difficult to measure compound inhibition of these proteins in a biochemical assay and we instead utilized direct binding methods to compare compounds interaction with different proteins. To understand ligand binding, we tested several approaches such as surface plasmon resonance and isothermal calorimetry. Like many membrane/detergent-associated proteins, however, these methods were not amenable for HSD17B13. We next turned to thermal shift assays (TSA) for comparing ligand binding affinities. TSA measures the changes in the thermal denaturation temperature of a protein under different conditions such as the presence compound, changes in buffer conditions, or sequence mutations. There are various readouts including intrinsic fluorescence or light scattering signals. We chose the static light scattering methods to detect the temperatures at which our proteins start to aggregate (Tagg), which are more suitable for membrane proteins that require detergent micelles for stability. Given that in theory[51] and in practice Tagg continues to increase with concentration of ligands far above their IC50s, we used high cofactor and inhibitor concentrations in the TSA experiments to maximize the ligand binding signal.
(§1) TSA studies were run on the UNit instrument (Unchained Labs, CA, USA). Experiments were run in either 25 mM sodium phosphate pH 7, 150 mM NaCl, 10% glycerol, 1 mM TCEP, 0.05% DDM, + different cofactors (NAD^+, NADH, NADP, NADPH; MilliporeSigma) or 25 mM HEPES pH 7.2, 300 mM NaCl, 0.5 mM TCEP, 0.05% DDM, 10% glycerol, ±500 µM NAD^+, and ±100 µM compound 1 (from 2 mM DMSO stock) or DMSO or 50 mM Hepes pH 7.5, 300 mM NaCl, 0.5 mM TCEP, 0.05% DDM, 500 µM NAD^+, ± 50 µM compounds (from 2 mM stock) or DMSO. Protein aggregation was measured by static light scattering at 266 and 473 nm with a 1 °C/sec ramp rate from 20-80 °C. The data was processed using the UNcle software (Unchained Labs, CA, USA), and temperatures at which the protein started aggregation were recorded as Tagg. Reported Tagg and analysis were based on measurements at 266 nm unless otherwise indicated. The protein concentration used was 10.4 μM.

[2] = molecular target: T2, human HSD17B13 (Homo sapiens, UniProt Q7Z5P4); test: Thermal shift assay (static light scattering, Tagg), human HSD17B13; type: binding; details: Fig. 6c; 500 μM NAD+ alone, no compound
T2 construct: human HSD17B13 (residues 2-300, NP_835236.2); 10x His (N); TEV protease site (N); made in house; host or cells: Sf9 (baculovirus)
T2 sequence (Q7Z5P4 2-300): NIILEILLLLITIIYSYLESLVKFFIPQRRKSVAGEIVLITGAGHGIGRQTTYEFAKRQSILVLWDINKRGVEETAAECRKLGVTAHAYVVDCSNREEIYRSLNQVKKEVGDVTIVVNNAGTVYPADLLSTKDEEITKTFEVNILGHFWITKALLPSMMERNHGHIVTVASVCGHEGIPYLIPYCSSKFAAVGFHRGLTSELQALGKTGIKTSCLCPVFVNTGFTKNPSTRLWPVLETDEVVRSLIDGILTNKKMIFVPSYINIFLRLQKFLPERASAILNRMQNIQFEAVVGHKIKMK
Excerpt: To understand ligand binding, we tested several approaches such as surface plasmon resonance and isothermal calorimetry. […] We next turned to thermal shift assays (TSA) for comparing ligand binding affinities. TSA measures the changes in the thermal denaturation temperature of a protein under different conditions such as the presence compound, changes in buffer conditions, or sequence mutations. There are various readouts including intrinsic fluorescence or light scattering signals. We chose the static light scattering methods to detect the temperatures at which our proteins start to aggregate (Tagg), which are more suitable for membrane proteins that require detergent micelles for stability.
as §1, with “indicated.” for “indicated. The protein concentration used was 10.4 μM.”

[3] = molecular target: human mutant HSD17B13 (Q60K/I62R/R71H/E161K) (human) (UniProt Q7Z5P4); test: crystal structure; human mutant HSD17B13 with 1 mM NAD+, 1 mM compound 2 and 0.5% β-octyl-glucoside; 25% PEG3350, 0.1 M Bis-Tris pH 5.5, 0.2 M Li2SO4; room temperature
[4] = molecular target: the molecule itself; test: crystal structure; dog HSD17B13 at 12 mg/ml with 1 mM NAD+, 1 mM compound 1 and 0.125% β-octyl-glucoside; 30% PEG3350, 0.2 M ammonium chloride; room temperature; apo crystals by soaking with buffer containing NAD+ only

Molecule: Cc1ccc(S(=O)(=O)c2cc(C)cc(S(=O)(=O)Nc3ccc(C(=O)O)cc3)c2C)cc1 [Compound 2]
- effect on protein stability in TSA [1]: neither 1 nor 2 showed an effect on protein stability
- Tagg ([1]; 50 µM compound): 40.37 °C and 38.02 °C and 40.65 °C and 41.03 °C and 39.22 °C and 40.82 °C and 39.77 °C and 38.1 °C

Molecule: NC(=O)c1ccc[n+]([C@@H]2O[C@H](COP(=O)([O-])OP(=O)(O)OC[C@H]3O[C@@H](n4cnc5c(N)ncnc54)[C@H](O)[C@@H]3O)[C@@H](O)[C@H]2O)c1 [NAD, nicotinamide adenine dinucleotide]
- Tagg, individual measurements [2]: 43.6 °C (2×) and 38.9 °C and 40.5 °C and 42 °C and 41.7 °C (2×) and 41 °C

Molecule: human mutant HSD17B13 (Q60K/I62R/R71H/E161K) (from UniProt Q7Z5P4-1 20-300) (enzyme)
- stoichiometry N [3]: 2

B1: dog wild-type HSD17B13 (hydroxysteroid 17-beta-dehydrogenase 13) (enzyme, UniProt A0A8C0PP93 1-300, looked up)
chain: MNIILDLLLLLLTIIYSYLEALVKVFFPRKRKSVAGEIVLITGAGHGIGRWTAYEFAKQKSRLVLWDINKHGVEETAAECRKLGATVHTFVVDCGNREDIYNSVKQVKKEVGDVTILVNNAGTVYPADLLSTKDEEITKTFEINILGHFWITKALLPSMIKRNHGHIVTVASVCGHGVIPYLIPYCSSKFAAVGFHRALTLELQTLGITGIKTSCLCPVFVNTGFTKNPSTRLWPILETDTVARSLIDGILTNKKMIFVPSYYNIYLILDKFLPERALAAINHLQNIQFEAVIGHKTRMK
notes: HSD17B13, dog, AA1-300 of XP_038300006.1; Crystallised with NAD+ and compound 1; the apo (NAD+ only) crystals were made by soaking compound 1 out; It is held in two of the entries PDB 8G84, 8G89, 8G93 and 8G9V; also called Dog WT; dog WT HSD17B13; source: Sf9 (baculovirus), solubilised from membranes with C12E8, purified (NiNTA, SEC)
- stoichiometry N [4]: 2

B2: dog mutant HSD17B13 (G177E/V178G/T205A/I293V) (enzyme, UniProt A0A8C0PP93 1-300, looked up)
chain: MNIILDLLLLLLTIIYSYLEALVKVFFPRKRKSVAGEIVLITGAGHGIGRWTAYEFAKQKSRLVLWDINKHGVEETAAECRKLGATVHTFVVDCGNREDIYNSVKQVKKEVGDVTILVNNAGTVYPADLLSTKDEEITKTFEINILGHFWITKALLPSMIKRNHGHIVTVASVCGHEGIPYLIPYCSSKFAAVGFHRALTLELQALGITGIKTSCLCPVFVNTGFTKNPSTRLWPILETDTVARSLIDGILTNKKMIFVPSYYNIYLILDKFLPERALAAINHLQNIQFEAVVGHKTRMK
notes: HSD17B13, dog, AA1-300 of XP_038300006.1, with four residues at the compound 1 site changed to the human ones; It is held in one of the entries PDB 8G84, 8G89, 8G93 and 8G9V; also called dog quadruple mutant; mutated dog HSD17B13; source: Sf9 (baculovirus), solubilised from membranes with C12E8, purified (NiNTA, SEC)
- stoichiometry N [4]: 2
